From ChEMBL document CHEMBL1687773 (Antimicrob Agents Chemother, 2010)
Activity calls are given as the source filed them. The rule behind the calls is not given here.

Columns and labels:
[1] = target: Amine oxidase [flavin-containing] A (Homo sapiens, UniProt P21397); assay: Inhibition of human MAO-A at up to 10 uM
[2] = target: Adenosine receptor A1 (Homo sapiens) (UniProt P30542); assay: Inhibition of human adenosine A1 receptor at up to 10 uM
[3] = Inhibition of human phosphodiesterase 4
[4] = target: Beta-1 adrenergic receptor (Homo sapiens) (UniProt P08588); assay: Inhibition of human adrenergic beta1 receptor at up to 10 uM
[5] = system: Human immunodeficiency virus type 1 reverse transcriptase (Human immunodeficiency virus 1), Q72547 [P236L]; assay: Inhibition of HIV1 histidine-tagged reverse transcriptase P236L mutant activity by primer extension assay
[6] = system: Human immunodeficiency virus 1; assay: Ratio of EC50 for wild type HIV1 NL4-3 to EC50 for HIV1 NL4-3 harboring reverse transcriptase Y181I, Y188L mutant; type: functional
[7] = system: Human immunodeficiency virus 1; assay: Antiviral activity against wild type HIV1 NL4-3 infected in human HeLaP4 cells assessed as inhibition of viral replication after 5 days by beta-galactosidase reporter assay; type: functional, organism-based; settings: Human immunodeficiency virus 1, NL4-3, HeLaP4, 120 h
[8] = system: Human immunodeficiency virus 1; assay: Antiviral activity against HIV1 NL4-3 harboring reverse transcriptase V108I, E138K, F227F/L mutant infected in human SupT1 cells derived from 11 viral passages with lersivirine assessed as inhibition of viral replication after 21 days relative to drug sensitive HIV1 NL4-3; type: functional, SUP-T1
[9] = system: Human immunodeficiency virus type 1 reverse transcriptase (Human immunodeficiency virus 1), Q72547 [K101E]; assay: Inhibition of HIV1 histidine-tagged reverse transcriptase K101E mutant activity by primer extension assay
[10] = system: Human immunodeficiency virus 1; assay: Antiviral activity against HIV1 NL4-3 harboring reverse transcriptase V106A mutant infected in human HeLaP4 cells assessed as inhibition of viral replication after 5 days by beta-galactosidase reporter assay; type: functional, organism-based
[11] = system: Human immunodeficiency virus 1; assay: Antiviral activity against HIV1 NL4-3 harboring reverse transcriptase V108I, E138K mutant infected in human SupT1 cells derived from 9 viral passages with lersivirine assessed as inhibition of viral replication after 21 days relative to drug sensitive HIV1 NL4-3; type: functional, SUP-T1
[12] = system: Human immunodeficiency virus 1; assay: Antiviral activity against HIV1 NL4-3 harboring reverse transcriptase K103N mutant infected in human HeLaP4 cells assessed as inhibition of viral replication after 5 days by beta-galactosidase reporter assay; type: functional, organism-based; settings: Human immunodeficiency virus 1, NL4-3, HeLaP4, 120 h
[13] = system: Human immunodeficiency virus 1; assay: Antiviral activity against HIV1 NL4-3 harboring reverse transcriptase M184V mutant infected in human HeLaP4 cells assessed as inhibition of viral replication after 5 days by beta-galactosidase reporter assay; type: functional, organism-based
HepG2 = assay: Inhibition of DNA synthesis in human HepG2 cells assessed as [3H]-thymidine incorporation at up to 10 uM; type: functional, cell-based
[14] = system: Human immunodeficiency virus type 1 reverse transcriptase (Human immunodeficiency virus 1), Q72547 [Y188C]; assay: Inhibition of HIV1 histidine-tagged reverse transcriptase Y188C mutant activity by primer extension assay
[15] = system: Human immunodeficiency virus 1; assay: Ratio of EC50 for wild type HIV1 NL4-3 to EC50 for HIV1 NL4-3 harboring reverse transcriptase F227L mutant; type: functional
[16] = system: Human immunodeficiency virus 1; assay: Ratio of EC50 for wild type HIV1 NL4-3 to EC50 for HIV1 NL4-3 harboring reverse transcriptase F227C mutant; type: functional
[17] = system: Human immunodeficiency virus 1; assay: Ratio of EC50 for wild type HIV1 NL4-3 to EC50 for HIV1 NL4-3 harboring reverse transcriptase Y181I mutant; type: functional
[18] = target: Human immunodeficiency virus type 1 reverse transcriptase (Human immunodeficiency virus 1) (UniProt Q72547); assay: Noncovalent binding affinity to wild type recombinant HIV1 HXB2 reverse transcriptase by protein X-ray crystallography analysis
[19] = target: 5-hydroxytryptamine receptor 2A (Homo sapiens) (UniProt P28223); assay: Inhibition of human 5-HT2A receptor at up to 10 uM
[20] = system: Human immunodeficiency virus 1; assay: Ratio of EC50 for wild type HIV1 NL4-3 to EC50 for HIV1 NL4-3 harboring reverse transcriptase K101E mutant; type: functional
[21] = target: Beta-2 adrenergic receptor (Homo sapiens) (UniProt P07550); assay: Inhibition of human adrenergic beta2 receptor at up to 10 uM
[22] = target: Opioid receptors; mu/kappa/delta (Homo sapiens) (UniProt P41145+P41143+P35372); assay: Inhibition of human non-selective opioid receptor at up to 10 uM
[23] = system: Human immunodeficiency virus 1; assay: Antiviral activity against HIV1 NL4-3 harboring reverse transcriptase E233V mutant infected in human HeLaP4 cells assessed as inhibition of viral replication after 5 days by beta-galactosidase reporter assay; type: functional, organism-based
Homo sapiens [24] = organism: Homo sapiens; assay: Inhibition of human L-type calcium channel dihydropyridine binding site at up to 10 uM
[25] = system: Human immunodeficiency virus 1; assay: Ratio of EC50 for wild type HIV1 NL4-3 to EC50 for HIV1 NL4-3 harboring reverse transcriptase E138K mutant; type: functional
[26] = target: 5-hydroxytryptamine receptor 1B (Homo sapiens) (UniProt P28222); assay: Inhibition of human 5-HT1B receptor at up to 10 uM
[27] = target: Human immunodeficiency virus type 1 reverse transcriptase (Human immunodeficiency virus 1, UniProt Q72547); assay: Mixed non-competitive inhibition of HIV1 reverse transcriptase activity
[28] = system: Human immunodeficiency virus 1; assay: Antiviral activity against HIV1 NL4-3 harboring reverse transcriptase F227L mutant infected in human HeLaP4 cells assessed as inhibition of viral replication after 5 days by beta-galactosidase reporter assay; type: functional, organism-based
[29] = system: Human immunodeficiency virus 1; type: functional, organism-based; settings: NL4-3, HeLaP4
[30] = system: Human immunodeficiency virus 1; assay: Ratio of EC50 for wild type HIV1 NL4-3 to EC50 for HIV1 NL4-3 harboring reverse transcriptase V106A, F227L mutant; type: functional
[31] = system: Human immunodeficiency virus 1; assay: Ratio of EC50 for wild type HIV1 NL4-3 to EC50 for HIV1 NL4-3 harboring reverse transcriptase P236L mutant; type: functional
[32] = target: Type-1 angiotensin II receptor (Homo sapiens) (UniProt P30556); assay: Inhibition of human AT1 receptor at up to 10 uM
[33] = system: Human immunodeficiency virus 1; assay: Ratio of EC50 for wild type HIV1 NL4-3 to EC50 for HIV1 NL4-3 harboring reverse transcriptase K103N mutant; type: functional
Homo sapiens [34] = organism: Homo sapiens; assay: Inhibition of human Phosphodiesterase 3 at up to 10 uM
[35] = system: Human immunodeficiency virus 1; assay: Antiviral activity against HIV1 NL4-3 harboring reverse transcriptase Y181I mutant infected in human HeLaP4 cells assessed as inhibition of viral replication after 5 days by beta-galactosidase reporter assay; type: functional, organism-based
[36] = system: Human immunodeficiency virus 1; assay: Antiviral activity against HIV1 NL4-3 harboring reverse transcriptase L100I mutant infected in human HeLaP4 cells assessed as inhibition of viral replication after 5 days by beta-galactosidase reporter assay; type: functional, organism-based
[37] = Cytotoxicity against human HeLaP4 cells at 200 uM by aqueous nonradioactive cell proliferation assay; type: cell-based; settings: helap4, 200 µM
[38] = system: Human immunodeficiency virus 1; assay: Ratio of EC50 for wild type HIV1 NL4-3 to EC50 for HIV1 NL4-3 harboring reverse transcriptase L100I mutant; type: functional
[39] = system: Human immunodeficiency virus 1; assay: Ratio of EC50 for wild type HIV1 NL4-3 to EC50 for HIV1 NL4-3 harboring reverse transcriptase M184V mutant; type: functional

Chain of Beta-2 adrenergic receptor (Homo sapiens) (P07550 whole entry, looked up): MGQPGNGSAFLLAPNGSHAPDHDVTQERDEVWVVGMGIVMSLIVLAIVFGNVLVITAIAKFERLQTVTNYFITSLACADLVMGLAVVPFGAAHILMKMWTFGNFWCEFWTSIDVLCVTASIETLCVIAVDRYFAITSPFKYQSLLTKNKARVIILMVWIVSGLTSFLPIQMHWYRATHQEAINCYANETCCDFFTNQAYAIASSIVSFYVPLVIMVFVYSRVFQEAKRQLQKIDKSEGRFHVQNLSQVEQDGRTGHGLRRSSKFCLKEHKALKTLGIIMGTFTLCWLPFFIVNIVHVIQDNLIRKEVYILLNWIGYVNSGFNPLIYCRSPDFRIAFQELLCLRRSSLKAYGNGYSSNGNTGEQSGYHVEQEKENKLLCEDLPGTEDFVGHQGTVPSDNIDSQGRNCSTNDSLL
Chain of Amine oxidase [flavin-containing] A (P21397 whole entry): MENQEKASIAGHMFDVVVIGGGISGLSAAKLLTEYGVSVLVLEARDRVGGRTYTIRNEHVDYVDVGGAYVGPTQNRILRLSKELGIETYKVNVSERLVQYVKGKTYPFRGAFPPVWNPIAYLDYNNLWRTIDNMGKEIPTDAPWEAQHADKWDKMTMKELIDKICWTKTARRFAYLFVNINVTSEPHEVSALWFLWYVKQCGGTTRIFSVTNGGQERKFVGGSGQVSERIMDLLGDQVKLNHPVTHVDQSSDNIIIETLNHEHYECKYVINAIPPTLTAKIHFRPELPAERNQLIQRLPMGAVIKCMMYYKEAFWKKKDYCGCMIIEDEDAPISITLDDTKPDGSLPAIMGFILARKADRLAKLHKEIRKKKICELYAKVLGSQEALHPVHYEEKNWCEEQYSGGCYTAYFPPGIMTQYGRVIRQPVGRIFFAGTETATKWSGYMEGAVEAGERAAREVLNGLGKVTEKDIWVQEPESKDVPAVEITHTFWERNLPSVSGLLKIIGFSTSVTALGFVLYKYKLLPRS
Chain of 5-hydroxytryptamine receptor 2A (Homo sapiens) (P28223 whole entry): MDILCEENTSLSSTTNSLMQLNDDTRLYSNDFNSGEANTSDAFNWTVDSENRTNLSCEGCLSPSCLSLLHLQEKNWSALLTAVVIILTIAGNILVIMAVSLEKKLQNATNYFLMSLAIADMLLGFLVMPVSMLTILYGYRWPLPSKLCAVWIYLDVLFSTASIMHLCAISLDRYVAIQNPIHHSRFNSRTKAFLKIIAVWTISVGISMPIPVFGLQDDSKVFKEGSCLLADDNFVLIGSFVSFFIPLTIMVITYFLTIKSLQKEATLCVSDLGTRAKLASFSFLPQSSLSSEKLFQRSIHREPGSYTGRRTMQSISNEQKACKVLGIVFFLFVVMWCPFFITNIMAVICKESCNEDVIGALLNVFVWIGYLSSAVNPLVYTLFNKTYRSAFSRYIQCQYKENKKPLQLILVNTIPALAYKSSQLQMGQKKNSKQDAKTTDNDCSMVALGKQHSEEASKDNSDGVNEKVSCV
Chain of Opioid receptors; mu/kappa/delta (Homo sapiens) (P35372 whole entry, looked up): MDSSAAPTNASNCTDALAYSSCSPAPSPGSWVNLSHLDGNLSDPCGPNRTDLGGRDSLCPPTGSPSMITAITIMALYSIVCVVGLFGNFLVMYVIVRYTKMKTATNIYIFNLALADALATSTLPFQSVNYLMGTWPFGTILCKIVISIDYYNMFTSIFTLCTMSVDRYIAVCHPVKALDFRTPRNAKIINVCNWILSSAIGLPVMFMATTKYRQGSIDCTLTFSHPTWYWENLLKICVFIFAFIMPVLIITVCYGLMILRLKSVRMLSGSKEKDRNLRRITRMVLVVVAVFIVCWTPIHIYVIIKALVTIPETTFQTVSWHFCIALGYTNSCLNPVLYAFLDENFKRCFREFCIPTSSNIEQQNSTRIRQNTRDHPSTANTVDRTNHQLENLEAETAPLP
Chain of Opioid receptors; mu/kappa/delta (Homo sapiens) (P41143 whole entry, looked up): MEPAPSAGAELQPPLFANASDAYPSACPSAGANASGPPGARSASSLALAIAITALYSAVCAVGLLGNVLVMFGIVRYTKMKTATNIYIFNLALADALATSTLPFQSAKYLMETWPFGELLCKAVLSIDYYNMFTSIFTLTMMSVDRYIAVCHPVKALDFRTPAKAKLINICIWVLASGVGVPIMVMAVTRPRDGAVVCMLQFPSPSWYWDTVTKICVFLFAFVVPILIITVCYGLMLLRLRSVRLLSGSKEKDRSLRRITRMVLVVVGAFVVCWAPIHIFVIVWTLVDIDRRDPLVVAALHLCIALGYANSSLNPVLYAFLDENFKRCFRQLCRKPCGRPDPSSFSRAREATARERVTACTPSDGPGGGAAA
Chain of Opioid receptors; mu/kappa/delta (Homo sapiens) (P41145 whole entry, looked up): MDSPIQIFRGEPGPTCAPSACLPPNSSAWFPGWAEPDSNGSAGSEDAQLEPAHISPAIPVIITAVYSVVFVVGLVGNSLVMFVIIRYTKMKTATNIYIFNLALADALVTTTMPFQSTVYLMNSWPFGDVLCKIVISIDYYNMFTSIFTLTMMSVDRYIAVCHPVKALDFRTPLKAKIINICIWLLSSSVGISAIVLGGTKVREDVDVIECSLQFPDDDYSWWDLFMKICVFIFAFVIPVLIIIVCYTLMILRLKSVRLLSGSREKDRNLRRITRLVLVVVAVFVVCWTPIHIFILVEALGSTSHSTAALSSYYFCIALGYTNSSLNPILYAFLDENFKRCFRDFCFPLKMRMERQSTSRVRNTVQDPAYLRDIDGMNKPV
Chain of Type-1 angiotensin II receptor (Homo sapiens) (P30556 whole entry): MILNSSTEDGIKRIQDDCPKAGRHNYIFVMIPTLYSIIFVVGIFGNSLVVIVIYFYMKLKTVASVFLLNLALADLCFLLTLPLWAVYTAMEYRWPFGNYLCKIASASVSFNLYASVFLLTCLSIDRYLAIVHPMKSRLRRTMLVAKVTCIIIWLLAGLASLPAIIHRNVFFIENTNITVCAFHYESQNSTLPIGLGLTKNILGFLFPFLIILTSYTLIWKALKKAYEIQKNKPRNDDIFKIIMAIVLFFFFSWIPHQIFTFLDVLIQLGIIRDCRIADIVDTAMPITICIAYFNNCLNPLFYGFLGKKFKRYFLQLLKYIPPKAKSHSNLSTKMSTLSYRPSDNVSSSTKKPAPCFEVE
Chain of Beta-1 adrenergic receptor (Homo sapiens) (P08588 whole entry, looked up): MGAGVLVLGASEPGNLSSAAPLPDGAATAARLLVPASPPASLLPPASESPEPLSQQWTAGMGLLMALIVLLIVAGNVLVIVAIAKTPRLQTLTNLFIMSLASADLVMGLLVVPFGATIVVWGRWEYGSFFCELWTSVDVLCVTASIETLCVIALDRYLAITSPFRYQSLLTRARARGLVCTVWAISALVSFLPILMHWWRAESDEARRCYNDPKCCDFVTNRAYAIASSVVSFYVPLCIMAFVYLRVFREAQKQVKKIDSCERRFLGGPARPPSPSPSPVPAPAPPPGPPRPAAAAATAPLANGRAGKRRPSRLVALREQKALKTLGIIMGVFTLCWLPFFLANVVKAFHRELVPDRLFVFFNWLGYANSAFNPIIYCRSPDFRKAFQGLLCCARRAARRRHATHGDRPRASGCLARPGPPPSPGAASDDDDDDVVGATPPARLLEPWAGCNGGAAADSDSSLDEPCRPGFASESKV
Chain of Adenosine receptor A1 (Homo sapiens) (P30542 whole entry): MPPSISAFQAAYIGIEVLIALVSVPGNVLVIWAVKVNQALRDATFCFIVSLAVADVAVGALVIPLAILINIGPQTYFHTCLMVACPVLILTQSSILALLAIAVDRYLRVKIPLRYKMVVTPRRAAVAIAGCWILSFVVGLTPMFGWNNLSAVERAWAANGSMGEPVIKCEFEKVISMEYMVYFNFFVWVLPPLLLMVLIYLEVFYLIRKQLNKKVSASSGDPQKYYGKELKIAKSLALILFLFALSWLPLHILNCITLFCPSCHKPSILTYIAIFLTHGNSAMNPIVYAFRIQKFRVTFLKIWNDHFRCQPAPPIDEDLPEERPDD
Chain of 5-hydroxytryptamine receptor 1B (Homo sapiens) (P28222 whole entry): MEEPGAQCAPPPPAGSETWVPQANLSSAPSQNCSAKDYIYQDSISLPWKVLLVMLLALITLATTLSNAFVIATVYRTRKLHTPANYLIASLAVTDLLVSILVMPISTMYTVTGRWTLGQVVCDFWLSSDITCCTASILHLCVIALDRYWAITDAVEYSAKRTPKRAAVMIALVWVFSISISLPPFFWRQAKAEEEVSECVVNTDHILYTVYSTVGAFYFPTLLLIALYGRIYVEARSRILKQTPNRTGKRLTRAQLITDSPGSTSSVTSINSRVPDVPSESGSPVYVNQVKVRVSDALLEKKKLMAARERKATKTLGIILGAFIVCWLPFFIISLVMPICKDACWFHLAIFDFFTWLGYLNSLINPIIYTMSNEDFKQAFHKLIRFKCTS

CCc1nn(CCO)c(CC)c1Oc1cc(C#N)cc(C#N)c1 [LERSIVIRINE]
inhibition (INH) [1]: Not Active
inhibition [2]: inactive
IC50 [3]: 3000 nM
inhibition [4]: inactive
inhibition [5]: Active
Ratio EC50 [6]: 65
EC50 [7]: 3.96 nM
fold change (FC) [8]: 143
inhibition [9]: Active
inhibition [10]: Active
fold change (FC) [11]: 14
EC50 [12]: 7.05 nM
inhibition [13]: Active
inhibition (HepG2): inactive
inhibition [14]: Active
Ratio EC50 [15]: 10
Ratio EC50 [16]: 55
Ratio EC50 [17]: 10
Activity [18]: Active
inhibition [19]: inactive
Ratio EC50 [20]: 10
inhibition [21]: inactive
inhibition [22]: inactive
inhibition [23]: Active
inhibition (Homo sapiens [24]): inactive
Ratio EC50 [25]: 10
inhibition [26]: inactive
Ki [27]: 117 nM
inhibition [28]: Active
inhibition [29]: Active
Ratio EC50 [30]: >200
Ratio EC50 [31]: 10
inhibition [32]: inactive
Ratio EC50 [33]: 10
inhibition (Homo sapiens [34]): inactive
inhibition [35]: Active
inhibition [36]: Active
Activity [37]: Non-toxic
Ratio EC50 [38]: 10
Ratio EC50 [39]: 10
